The structures appear in SMILES notation.

This data set is described as follows: In vitro release of olopatadine from polymer gel films (USP Apparatus 7, HPLC-UV). In kind it is physicochemical. Conditions: FIGS. 1A and 1B. As to the method:
Release of olopatadine from polymer gel films was studied in vitro using water or phosphate buffered saline (PBS) as the dissolution media. Dissolution was performed using USP Apparatus 7 and samples were collected by its autosampler. HPLC—with UV-vis detector was used to measure component concentration during dissolution samples at different time points. […] Olopatadine HCl remains as a zwitterion at physiological pH due to the negatively charged carboxylic group and positively charged tertiary amino group on the molecule, therefore possible mechanism of API release from the gel films into dissolution media is through ion exchange. HA in gel films may complex with olopatadine through ionic interaction. […] Dissolution media plays a main role in the release profiles, as ionic bonding occurred between HA and Olopatadine. Ionic polymer provides some prolong release. Diffusion is believed to be the main release mechanism. PBS: phosphate-buffered saline pH 7.2; DI water: deionized water.

For `CN(C)CC/C=C1/c2ccccc2COc2ccc(CC(=O)O)cc21.Cl` [olopatadine, 11-[(Z)-3-(Dimethylamino)propylidene]-6-11-dihydrodibenz[b,e] oxepin-2-acetic acid hydrochloride], where the note is “dissolution media PBS pH 7.2 or DI water”, the “Olopatadine release rate, PBS versus water” value is given as “faster in PBS than in water”. In addition, where the note is “water and PBS”, the “Burst release of olopatadine” value was “no burst release”.

For the origin of these results see patent US20250195416A1, “DISSOLVABLE POLYMERIC OCULAR INSERT FOR DRUGS DELIVERY” (Alcon Inc., priority 2023, published 2025).
